Where a name gives a salt, the structure may show the parent alone. Read-outs that look alike come from different tables or passages of the source.
Legend:
[1] = test system: HCT116; test: Inhibition of cancer cell proliferation (MTT); assay type: cell-based, human
[2] = test system: SK-N-SH; test: Inhibition of cancer cell proliferation (MTT); assay type: cell-based, human
Summary of the method: (§1)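 GI50 values come from MTT readings (535 nm) taken after 72 h of compound treatment over 0.004–10 uM, normalised to vehicle-treated wells. Cell lines are grown in 10% FBS, with DMEM for A549, SK-N-SH and SH-SY5Y and […] for NCI-H23.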

[3] = test system: T98G; test: Inhibition of cancer cell proliferation (MTT); assay type: cell-based, human
Summary of the method: (§2)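 Plate 3000 cells/well and let them adhere for 16 h. Add compound (0.004, 0.013, 0.04, 0.12, 0.37, 1.1, 3.3, 10 uM; 0.08% DMSO) and culture for 72 h. Add MTT for 2 h, dissolve formazan in DMSO, read at 535 nm, and fit GI50.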

[4] = test system: U-87MG; test: Inhibition of cancer cell proliferation (MTT); assay type: cell-based, human
Summary of the method: as §2

[5] = Blood brain barrier permeation; assay type: in vivo, ICR mice; conditions: male, ICR, mouse, po; for Kp at 1 h / Kp at 4 h: brain/plasma, read-out: B/P ratio
Protocol: Using 9-week-old male ICR mice, the compounds obtained in the above Examples were orally administered once at a dose of 10 mg/kg or 30 mg/kg, and after 1 hr and 4 hrs, the concentrations of the compounds in the blood and brain of the mice were determined. 3 ICR mice were assigned in each group. Plasma was separated from the blood obtained after sacrificing the mice at each time, the brain of the mice was extracted, and the […] was washed with PBS, followed by pulverizing the brain tissue. The blood was placed in a test tube containing heparin to prevent coagulation and then was centrifuged at 12,000 rpm at 4° C. for 3 min to give a supernatant from which plasma was collected. Brain tissue was weighed, and the brain was pulverized using Dounce's homogenizer after adding 3 times as much volume of PBS as the brain weight. Each of the obtained analytical samples was quantitatively analyzed using a tandem liquid chromatography-mass spectrometer (Tandem LC/MS/MS, API3000 & Agilent 1100 series). Brain permeability of a compound is expressed as a value obtained by dividing the concentration of the compound in the brain by the concentration of the compound in the plasma (B/P ratio), and when the B/P ratio is greater than 1, it means that the concentration in the brain is higher than the one in the blood.

[6] = test system: A549; test: Inhibition of cancer cell proliferation (MTT); assay type: cell-based, human; conditions: Homo sapiens, A549, 72 h
Summary of the method: as §1

[7] = test system: NCI-H23; test: Inhibition of cancer cell proliferation (MTT); assay type: cell-based, human; conditions: Homo sapiens, NCI-H23, 72 h
Summary of the method: as §1

[8] = test system: human normal lung cell line MRC5; test: Cell cycle change by flow cytometry, normal cells; assay type: cell-based; conditions: 24 hrs
Protocol: A human colon carcinoma cell line HCT116 and a human normal lung cell line MRC5 were cultured in DMEM medium containing 10% FBS. Each cultured cells were harvested, placed in 6 well plate at 1×10^6 cells/well, and cultured at 5% CO2 and 37° C. for 16 hrs. The compounds of the above Examples at 75 nM and 150 nM in DMEM containing 5% FBS were added to the cells in each well, and after 24 hrs a change in the cell cycle was analyzed using a flow cytometry. Media of treatment groups and a control group were removed, trypsin was added to isolate cells from the plates and the cells were centrifuged at 1000 g for 3 min. The isolated cells were washed with a cold phosphate buffer (PBS) two times. Afterwards, 1 ml of 70% ethanol was added to the cells and the cells were maintained at 4° C. for 30 min or more to fix the cells. The fixed cells were centrifuged at 1000 g for 3 min to remove ethanol, and washed with phosphate buffer (PBS) two times to remove ethanol completely. The washed cells were suspended in 250 ul of PBS, 6.25 ul of 10 mg/ml RNaseA was added to the suspension and reacted for 15 min at room temperature to degrade all RNA. 12.5 ul of 1 mg/ml propidium iodide (PI, sigma) was added to stain intracellular DNA. The cell cycles of 10,000 stained cells were measured using FACS calibur (Becton-Dickinson, USA) and cell numbers present in G1, S and G2/M phases were calculated as percentage using a cell cycle analysis program. Tables 3 and 4 show the results of cell cycle analysis for the compound obtained in Example 1 in cancer cells and normal cells, respectively.

[9] = test system: Human glioblastoma U-87MG cell line; test: Tumor growth inhibition by combined administration in an animal model (U-87MG xenograft); conditions: oral daily for 30 days; for tumor growth inhibition: vs vehicle control
Protocol: Human glioblastoma U-87MG cell line of 5×10^6 cells/0.1 ml PBS was injected subcutaneously into the right flank of a Balb/c nude mouse. When a tumor grew to 150 mm^3, 5 mice were assigned for each group so that tumor sizes of all groups are consistent and a test compound was orally administered daily. Tumor size was measured three times a week using Caliper. […] For the combined administration, TMZ was orally administered daily for the first 5 days. For the single administration, the compound of Example 61 was orally administered daily for 30 days. For the combined administration, the compound of Example 61 was administered orally daily for 34 days. 20% propylene glycol (PG) was used as a vehicle control. Tumor size (volume) was calculated from the tumor length measured in each animal using the following Equation 1.
Tumor volume=(length of major axis×length of minor axis)/2 [Equation 1]

[10] = brain, 30 mg/kg, oral once 30 mg/kg, read-out: Concentration in the brain
[11] = plasma, 30 mg/kg, oral once 30 mg/kg, read-out: Concentration in the plasma
[12] = brain, 10 mg/kg, oral once 10 mg/kg, read-out: Concentration in the brain
[13] = plasma, 10 mg/kg, oral once 10 mg/kg, read-out: Concentration in the plasma

| Compound | GI50 ([1]; 72 hrs) | concentration at 1 h [5, 10] | concentration at 4 h [5, 10] | Kp at 1 h ([5]; 30 mg/kg, oral once 30 mg/kg) | Kp at 4 h ([5]; 30 mg/kg, oral once 30 mg/kg) | concentration at 1 h [5, 11] | concentration at 4 h [5, 11] | GI50 [6] | GI50 [7] | GI50 ([4]; Homo sapiens, U-87 MG, 72 h) | concentration at 1 h [5, 12] | concentration at 4 h [5, 12] | Kp at 1 h ([5]; 10 mg/kg, oral once 10 mg/kg) | Kp at 4 h ([5]; 10 mg/kg, oral once 10 mg/kg) | concentration at 1 h [5, 13] | concentration at 4 h [5, 13] | GI50 ([2]; Homo sapiens, SK-N-SH, 72 h) | further results |
| --- | --- | --- | --- | --- | --- | --- | --- | --- | --- | --- | --- | --- | --- | --- | --- | --- | --- | --- |
| Nc1nccc(-c2nc(-c3ccnc(N)c3F)ccc2O)n1 [Example 8] | 10 nM | 144 ng/g | 70.9 ng/g | 1.53 | 2.41 | 94.3 ng/mL | 29.4 ng/mL |  |  |  |  |  |  |  |  |  |  | GI50 ([2]; 72 hrs): 10 nM; GI50 ([3]; 72 hrs): 190 nM; GI50 ([4]; 72 hrs): 60 nM |
| Nc1nccc(-c2ccc(O)c(-c3ccnc(N)n3)n2)n1 [Example 1, 2,6-bis(2-aminopyrimidin-4-yl)pyridin-3-ol] | 150 nM |  |  |  |  |  |  |  |  | 850 nM |  |  |  |  |  |  | 280 nM | G1 (cell numbers as percentage) ([8]; MRC5, 75 nM): 50.7%; G2/M (cell numbers as percentage) ([8]; MRC5, 75 nM): 22.8%; Polyploidy (cell numbers as percentage) ([8]; MRC5, 75 nM): 8.8%; S (cell numbers as percentage) ([8]; MRC5, 75 nM): 9.1%; Sub-G1 (cell numbers as percentage) ([8]; MRC5, 75 nM): 8.8%; G1 (cell numbers as percentage) ([8]; MRC5, 150 nM): 44.0%; G2/M (cell numbers as percentage) ([8]; MRC5, 150 nM): 26.6%; Polyploidy (cell numbers as percentage) ([8]; MRC5, 150 nM): 10.2%; S (cell numbers as percentage) ([8]; MRC5, 150 nM): 6.8%; Sub-G1 (cell numbers as percentage) ([8]; MRC5, 150 nM): 12.8% |
| Nc1cc(-c2ccc(O)c(-c3ccnc(N)n3)n2)ccn1 [Example 10, 2′-amino-6-(2-aminopyrimidin-4-yl)-[2,4′-bipyridin]-5-ol] |  | 129 ng/g | 23.2 ng/g | 1.56 | 2.78 | 82.6 ng/mL | 8.3 ng/mL |  |  | 380 nM |  |  |  |  |  |  | 240 nM | GI50 ([1]; Homo sapiens, HCT-116, 72 h): 260 nM |

Second part, led by results:

| GI50 ([1]; 72 hrs) | concentration at 1 h [5, 10] | concentration at 4 h [5, 10] | Kp at 1 h ([5]; 30 mg/kg, oral once 30 mg/kg) | Kp at 4 h ([5]; 30 mg/kg, oral once 30 mg/kg) | concentration at 1 h [5, 11] | concentration at 4 h [5, 11] | GI50 [6] | GI50 [7] | GI50 ([4]; Homo sapiens, U-87 MG, 72 h) | concentration at 1 h [5, 12] | concentration at 4 h [5, 12] | Kp at 1 h ([5]; 10 mg/kg, oral once 10 mg/kg) | Kp at 4 h ([5]; 10 mg/kg, oral once 10 mg/kg) | concentration at 1 h [5, 13] | concentration at 4 h [5, 13] | GI50 ([2]; Homo sapiens, SK-N-SH, 72 h) | Compound | further results |
| --- | --- | --- | --- | --- | --- | --- | --- | --- | --- | --- | --- | --- | --- | --- | --- | --- | --- | --- |
| 10 nM |  |  |  |  |  |  | 20 nM | 40 nM | 10 nM | 3120 ng/g | 165 ng/g | 2.26 | 3.18 | 1380 ng/mL | 52.1 ng/mL |  | Cc1cc(-c2nc(-c3ccnc(N)c3F)ccc2O)nc(N)n1 [Example 71, 2′-amino-6-(2-amino-6-methylpyrimidin-4-yl)-3′-fluoro-[2,4′-bipyridin]-5-ol 3hydrochloride] | GI50 ([3]; Homo sapiens, T98G, 72 h): 60 nM |
| 90 nM | 768 ng/g | 577 ng/g | 2.76 | 4.49 | 278 ng/mL | 129 ng/mL | 210 nM | 430 nM |  | 296 ng/g | 90.3 ng/g | 1.05 | 1.04 | 283 ng/mL | 86.5 ng/mL |  | Nc1nccc(-c2ccc(O)c(-c3ccnc(N)n3)n2)n1 [Example 61, 2,6-bis(2-aminopyrimidin-4-yl)pyridin-3-ol 3hydrochloride] | Tumor size ([9]; 15 mpk alone): 3503.3 ± 674.9 mm^3; tumor growth inhibition ([9]; 15 mpk alone): 16.8%; Tumor size ([9]; 30 mpk alone): 2015.0 ± 1023 mm^3; tumor growth inhibition ([9]; 30 mpk alone): 52.2% |
